Data: patent US5451506A, “Oncostatin M and novel compositions having anti-neoplastic activity” (Oncogen Limited Partnership, priority 1993, dated 1995)

T1: Oncostatin M receptor on A375 or A549 cells (Homo sapiens, UniProt P40189+Q99650)
T1 construct: endogenous in cells; host or cells: A375 or A549 cells (intact monolayers)
T1 sequence (Q99650 28-979): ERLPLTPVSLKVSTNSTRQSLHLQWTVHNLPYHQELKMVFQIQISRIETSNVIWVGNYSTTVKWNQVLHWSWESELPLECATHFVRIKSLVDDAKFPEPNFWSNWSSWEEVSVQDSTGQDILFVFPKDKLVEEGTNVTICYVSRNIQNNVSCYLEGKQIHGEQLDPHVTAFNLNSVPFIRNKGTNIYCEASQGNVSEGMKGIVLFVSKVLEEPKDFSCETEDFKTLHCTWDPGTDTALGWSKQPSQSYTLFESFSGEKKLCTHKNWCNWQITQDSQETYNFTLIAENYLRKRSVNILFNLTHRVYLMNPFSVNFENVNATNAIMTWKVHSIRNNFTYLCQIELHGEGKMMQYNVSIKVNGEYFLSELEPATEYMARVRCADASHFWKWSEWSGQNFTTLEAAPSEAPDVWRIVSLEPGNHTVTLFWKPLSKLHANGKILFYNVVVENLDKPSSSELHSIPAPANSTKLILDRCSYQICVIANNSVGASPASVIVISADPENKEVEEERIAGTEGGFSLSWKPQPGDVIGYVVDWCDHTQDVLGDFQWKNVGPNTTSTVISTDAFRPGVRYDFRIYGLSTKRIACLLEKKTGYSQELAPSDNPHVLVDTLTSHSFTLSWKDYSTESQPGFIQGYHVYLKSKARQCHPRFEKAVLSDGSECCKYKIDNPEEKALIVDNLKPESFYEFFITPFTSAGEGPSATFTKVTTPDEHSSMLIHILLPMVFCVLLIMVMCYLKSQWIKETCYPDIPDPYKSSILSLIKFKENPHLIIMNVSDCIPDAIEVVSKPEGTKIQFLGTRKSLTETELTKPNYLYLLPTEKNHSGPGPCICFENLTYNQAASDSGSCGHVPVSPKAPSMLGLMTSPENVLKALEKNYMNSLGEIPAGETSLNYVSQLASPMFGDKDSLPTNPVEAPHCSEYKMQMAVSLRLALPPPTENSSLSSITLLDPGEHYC
T1 sequence (P40189 23-918): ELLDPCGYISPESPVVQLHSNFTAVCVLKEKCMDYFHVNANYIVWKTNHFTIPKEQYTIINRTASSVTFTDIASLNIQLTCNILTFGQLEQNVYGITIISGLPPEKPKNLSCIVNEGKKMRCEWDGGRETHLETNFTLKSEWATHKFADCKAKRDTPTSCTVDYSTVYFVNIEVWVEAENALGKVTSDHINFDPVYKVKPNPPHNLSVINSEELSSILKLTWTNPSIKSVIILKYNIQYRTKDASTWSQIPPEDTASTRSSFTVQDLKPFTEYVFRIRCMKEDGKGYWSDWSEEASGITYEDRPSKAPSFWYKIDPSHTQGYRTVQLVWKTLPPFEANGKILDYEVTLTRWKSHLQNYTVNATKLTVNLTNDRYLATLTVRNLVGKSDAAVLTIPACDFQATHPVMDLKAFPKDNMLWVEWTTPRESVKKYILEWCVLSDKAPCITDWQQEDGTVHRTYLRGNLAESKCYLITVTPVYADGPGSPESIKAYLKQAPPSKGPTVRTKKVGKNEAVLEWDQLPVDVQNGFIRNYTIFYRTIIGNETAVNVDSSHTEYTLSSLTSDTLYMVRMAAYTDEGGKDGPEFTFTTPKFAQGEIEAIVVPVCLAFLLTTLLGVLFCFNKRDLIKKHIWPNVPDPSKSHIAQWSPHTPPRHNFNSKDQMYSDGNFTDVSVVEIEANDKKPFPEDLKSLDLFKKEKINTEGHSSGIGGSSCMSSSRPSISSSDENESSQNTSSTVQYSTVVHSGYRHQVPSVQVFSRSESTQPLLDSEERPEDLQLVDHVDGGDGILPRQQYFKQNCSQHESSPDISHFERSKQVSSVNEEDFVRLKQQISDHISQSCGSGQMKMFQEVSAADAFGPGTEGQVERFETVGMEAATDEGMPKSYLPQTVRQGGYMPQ


How the values were obtained:
[1] = target: T1, Oncostatin M receptor on A375 or A549 cells; test: Specificity of Oncostatin M receptor: competition for binding of 125I-Oncostatin M; conditions: competitor 20 μg/ml; 125I-Oncostatin M 30-50 ng/ml
Protocol: The cell line of interest was plated in 48-well plates at a density of 2×10^5 cells/well and maintained at 37° C. for 16-24 hours before initiation of the assay. Cell monolayers were then washed once with Binding buffer (Linsley et al., Biochemistry (1986) 25:2978-2986). To measure total binding, ^125 I-Oncostatin M was added at concentrations ranging from 0.5-100 ng/ml. To measure non-specific binding, unlabeled Oncostatin M was added simultaneously with the ^125 I-Oncostatin M to replicate plates at a concentration 20- to 100-fold higher than the concentration of ^125 I-Oncostatin M. Binding was allowed to proceed for 2-5 hours at 23°, then the monolayers were washed four times with Binding Buffer, cell-bound radioactivity was solubilized with 1N NaOH and was counted in a gamma counter. Specific binding was calculated by subtracting the non-specific binding from total binding. The dissociation constant (Kd) and binding capacity was determined by Scatchard analysis (Scatchard, Ann. N.Y. Acad. Sci. (1949) 51:660).
The specificity of the Oncostatin M receptor was determined by evaluating the ability of several other polypeptide growth factors to compete for binding of ^125 I-Oncostatin M (at 30-50 ng/ml) to A375 or A549 cells.

A375 melanoma cells = test: Cell growth modulatory assay using 3H-thymidine incorporation into DNA (GIA); assay type: cell-based, human; design: Observed % Inhibition of 3H-TdR Incorporation: concentration or dose not given beside the values; conditions: A375 Cells
Protocol: (§1) The assays were performed in 96 flat well plates (Costar 3596). Human melanoma cells (A375) (3×10^3 /100 μl) or cells from another cell line of interest were at an appropriate cell density used. Cells in 100 μl growth medium were placed in each well. Three hours later, 100 μl of test sample in growth medium was added to each well. Plates were incubated at 37° C. for 3 days. Then 25 μl (0.5 μCi) of a solution of ^3 H-thymidine (specific activity 27 μCi/μg) was added to each well for the final 6 hours of incubation. The cells were then transferred to glass filter strips using a multiwell harvester (PHD Cell Harvester, Cambridge Technology, Inc.). The filters were transferred to scintillation vials. Two ml of scintillation fluid (ScientiVerse II, Fisher Scientific Co.) was added and the samples counted in a scintillation counter to quantitate ^3 H-thymidine incorporation.

MCF-7 breast tumor cells = test: Inhibition of 3H-TdR incorporation, Oncostatin M and TNF-α; assay type: cell-based, human; conditions: MCF-7 Cells
Protocol: as §1
Inhibition of ^3 H-TdR incorporation into A375 cells and MCF-7 cells were compared using the assay described in Example 1B, above. The cells were treated with either Oncostatin M alone, TNF-α (Amgen Biologicals, human recombinant TNF-α) alone, or with a combination of Oncostatin M and TNF-α.

Mouse L929 cells = test: Effect on mouse L929 cells; assay type: cell-based; conditions: up to 1000 GIA units/ml
Protocol: (§2) The ability of PBL-derived Oncostatin M to affect replication of a variety of cells was also investigated. Mouse L929 cells were insenstive to PBL-derived Oncostatin M using up to 1000 GIA units/ml. Growth of human fibroblasts, WI26, was stimulated by treatment with 1000 GIA units/ml. Normal human T-lymphocyte proliferation at 72 hours post mitogenesis was not affected by up to 500 GIA units/ml.

[2] = system: Normal human T-lymphocyte; test: Normal human T-lymphocyte proliferation post mitogenesis; assay type: cell-based; conditions: 72 hours post mitogenesis, up to 500 GIA units/ml
Protocol: as §2

WI26 fibroblasts = test: Cell growth modulatory assay using 3H-thymidine incorporation into DNA (GIA); assay type: cell-based, human; conditions: 1000 GIA units/ml
Protocol: as §1
Human tumor cells (A375 melanoma cells, A549 lung cancer cells, HBT10 neuroblastoma cells, and SK-MEL28 melanoma cells) were seeded at 3×10^3 cells/well and normal fibroblasts (WI26 cells and WI38 cells) at 1.5×10^3 cells/well in 96-well plates. Various concentrations of purified Oncostatin M, obtained from the fraction from the C18^3 column with peak antiproliferative activity against A375 cells were used. The assay was performed as described in Example 1B above.

Molecule | Inhibitory activity towards binding of 125I-Oncostatin M [1] | Observed % Inhibition of 3H-TdR Incorporation (A375 melanoma cells) | Observed % Inhibition of 3H-TdR Incorporation (MCF-7 breast tumor cells) | Replication of mouse L929 cells (Mouse L929 cells) | Normal human T-lymphocyte proliferation [2] | Growth of human fibroblasts WI26 (WI26 fibroblasts)
TNF-α | None of these showed significant inhibitory activity | 7% | 30% |  |  | 
PBL-derived Oncostatin M: Oncostatin M isolated from conditioned medium of activated human T-lymphoblasts, approximately 80% pure (protein, UniProt P13725 26-221, looked up) Oncostatin-M: AAIGSCSKEYRVLLGQLQKQTDLMQDTSRLLDPYIRIQGLDVPKLREHCRERPGAFPSEETLRGLGRRGFLQTLNATLGCVLHRLADLEQRLPKAQDLERSGLNIEDLEKLQMARPNILGLRNNIYCMAQLLDNSDTAEPTKAGRGASQPPTPTPASDAFQRKLEGCRFLHGYHRFMHSVGRVFSKWGESPNRSRR |  |  |  | insenstive | not affected | stimulated
